In ChEMBL document CHEMBL1201862, “PubChem BioAssay data set” (2004):
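Interpolation was linear, between the two tested concentrations surrounding the appropriate level; five concentrations were tested over 48 hours in 96-well plates. Here, GI50 denotes the concentration required for 50% inhibition of growth.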 Active and inactive are the calls of the source. No stated cut-off is given here; in the data, active = GI50 up to about 1.1 µM and inactive = higher.

Experiments:
Test in all cases: NCI tumour cell line growth inhibition, 48 h
SF-295 = system: SF-295
K562 = system: K562
Malme-3M = system: Malme-3M
U-251 = system: U-251
SR = system: SR
MDA-MB-231 = system: MDA-MB-231
CCRF-CEM = system: CCRF-CEM
HCT-15 = system: HCT-15
SF-268 = system: SF-268
MOLT-4 = system: MOLT-4
HCC 2998 = system: HCC 2998
SK-MEL-5 = system: SK-MEL-5
HOP-62 = system: HOP-62
M14 = system: M14
LOX IMVI = system: LOX IMVI
NCI-H460 = system: NCI-H460
Hs-578T = system: Hs-578T
COLO 205 = system: COLO 205
UACC-62 = system: UACC-62
ACHN = system: ACHN
HOP-92 = system: HOP-92
UO-31 = system: UO-31
SNB-19 = system: SNB-19
786-0 = system: 786-0
SNB-75 = system: SNB-75
HT-29 = system: HT-29
OVCAR-4 = system: OVCAR-4
SK-MEL-28 = system: SK-MEL-28
KM12 = system: KM12
RPMI-8226 = system: RPMI-8226
EKVX = system: EKVX
SW-620 = system: SW-620
IGROV-1 = system: IGROV-1
A498 = system: A498
MCF7 = system: MCF7
MDA-MB-435 = system: MDA-MB-435
CAKI-1 = system: CAKI-1
OVCAR-5 = system: OVCAR-5
NCI-H522 = system: NCI-H522
NCI/ADR-RES = system: NCI/ADR-RES
SK-OV-3 = system: SK-OV-3
DU-145 = system: DU-145
T47D = system: T47D
BT-549 = system: BT-549
SF-539 = system: SF-539
NCI-H226 = system: NCI-H226
TK-10 = system: TK-10
HCT-116 = system: HCT-116
HL-60 = system: HL-60
SN12C = system: SN12C
SK-MEL-2 = system: SK-MEL-2
NCI-H23 = system: NCI-H23
OVCAR-3 = system: OVCAR-3
OVCAR-8 = system: OVCAR-8
A549 = system: A549
UACC-257 = system: UACC-257
RXF 393 = system: RXF 393
PC-3 = system: PC-3

For `C#CC1(OC(C)=O)CCC2C3CC=C4C=C(OC(C)=O)CCC4(C)C3CCC21C` (configuration not stated), the GI50 (SF-295) was 25.2 µM (inactive), the GI50 (K562) was 23.9 µM (inactive) and the GI50 (Malme-3M) was 18 µM (inactive). For the same compound, the GI50 (U-251) was 19.5 µM (inactive), the GI50 (SR) was 16.3 µM (inactive) and the GI50 (MDA-MB-231) was 24.2 µM (inactive). For the same compound, the GI50 (CCRF-CEM) was 12.6 µM (inactive), the GI50 (HCT-15) was 23.3 µM and the GI50 (SF-268) was 23.8 µM (inactive). For the same compound, the GI50 (MOLT-4) was 13.2 µM (inactive), the GI50 (HCC 2998) was 16 µM (inactive) and the GI50 (SK-MEL-5) was 18.3 µM (inactive). The GI50 (HOP-62) was 44.9 µM (inactive), the GI50 (M14) was 26.7 µM (inactive) and the GI50 (LOX IMVI) was 22.7 µM (inactive). For the same compound, the GI50 (NCI-H460) was 27 µM (inactive), the GI50 (Hs-578T) was 40.4 µM (inactive) and the GI50 (COLO 205) was 16.2 µM (inactive). The GI50 (UACC-62) was 18.3 µM (inactive), the GI50 (ACHN) was 26.7 µM (inactive) and the GI50 (HOP-92) was 16.1 µM (inactive). The GI50 (UO-31) was 23.1 µM (inactive), the GI50 (SNB-19) was 32.4 µM (inactive) and the GI50 (786-0) was 30.3 µM (inactive). For the same compound, the GI50 (SNB-75) was 28.1 µM (inactive), the GI50 (HT-29) was 17.2 µM (inactive) and the GI50 (OVCAR-4) was 19.4 µM (inactive). The GI50 (SK-MEL-28) was 25.9 µM (inactive), the GI50 (KM12) was 20.4 µM (inactive) and the GI50 (RPMI-8226) was < 0.01 µM (active). For the same compound, the GI50 (EKVX) was 30.5 µM (inactive), the GI50 (SW-620) was 23.4 µM (inactive) and the GI50 (IGROV-1) was 19.3 µM (inactive). The GI50 (A498) was 46.6 µM (inactive), the GI50 (MCF7) was 24.5 µM (inactive) and the GI50 (MDA-MB-435) was 20.1 µM (inactive). The GI50 (CAKI-1) was 36.5 µM (inactive), the GI50 (OVCAR-5) was 34.7 µM (inactive) and the GI50 (NCI-H522) was 17.4 µM (inactive). For the same compound, the GI50 (NCI/ADR-RES) was 26.9 µM (inactive), the GI50 (SK-OV-3) was 36.2 µM (inactive) and the GI50 (DU-145) was 31.1 µM (inactive). The GI50 (T47D) was 61.5 µM (inactive), the GI50 (BT-549) was 31.8 µM (inactive) and the GI50 (SF-539) was 21.3 µM (inactive). The GI50 (NCI-H226) was 24.8 µM (inactive), the GI50 (TK-10) was 24.3 µM (inactive) and the GI50 (HCT-116) was 16.2 µM (inactive). For the same compound, the GI50 (HL-60) was 28.6 µM (inactive), the GI50 (SN12C) was 19.5 µM (inactive) and the GI50 (SK-MEL-2) was 19.7 µM (inactive). For the same compound, the GI50 (NCI-H23) was 18.3 µM (inactive), the GI50 (OVCAR-3) was 20 µM (inactive) and the GI50 (OVCAR-8) was 19.1 µM (inactive). The GI50 (A549) was 31.6 µM (inactive) and the GI50 (UACC-257) was 17.4 µM (inactive).
With `CC(C)(C)OC(=O)N(CCNS(=O)(=O)c1cccc2cnccc12)CCC(=O)ON1C(=O)CCC1=O` the GI50 (SF-295) was > 100 µM (inactive), the GI50 (K562) was > 100 µM (inactive) and the GI50 (Malme-3M) was > 100 µM (inactive). For the same compound, the GI50 (U-251) was > 100 µM (inactive), the GI50 (SR) was > 100 µM (inactive) and the GI50 (MDA-MB-231) was > 100 µM (inactive). The GI50 (HCT-15) was > 100 µM, the GI50 (SF-268) was > 100 µM (inactive) and the GI50 (MOLT-4) was > 100 µM (inactive). For the same compound, the GI50 (SK-MEL-5) was > 100 µM (inactive), the GI50 (HOP-62) was > 100 µM (inactive) and the GI50 (RXF 393) was > 100 µM (inactive). For the same compound, the GI50 (M14) was > 100 µM (inactive), the GI50 (LOX IMVI) was > 100 µM (inactive) and the GI50 (NCI-H460) was 51.9 µM (inactive). The GI50 (Hs-578T) was > 100 µM (inactive), the GI50 (COLO 205) was > 100 µM (inactive) and the GI50 (UACC-62) was > 100 µM (inactive). The GI50 (ACHN) was > 100 µM (inactive), the GI50 (HOP-92) was 10.4 µM (inactive) and the GI50 (UO-31) was > 100 µM (inactive). For the same compound, the GI50 (SNB-19) was > 100 µM (inactive), the GI50 (786-0) was > 100 µM (inactive) and the GI50 (SNB-75) was > 100 µM (inactive). The GI50 (HT-29) was > 100 µM (inactive), the GI50 (OVCAR-4) was > 100 µM (inactive) and the GI50 (SK-MEL-28) was > 100 µM (inactive). For the same compound, the GI50 (RPMI-8226) was > 100 µM (inactive), the GI50 (EKVX) was 6.52 µM (inactive) and the GI50 (SW-620) was > 100 µM (inactive). The GI50 (IGROV-1) was > 100 µM (inactive), the GI50 (MCF7) was > 100 µM (inactive) and the GI50 (MDA-MB-435) was > 100 µM (inactive). The GI50 (OVCAR-5) was > 100 µM (inactive), the GI50 (NCI-H522) was > 100 µM (inactive) and the GI50 (NCI/ADR-RES) was > 100 µM (inactive). The GI50 (PC-3) was > 100 µM (inactive), the GI50 (SK-OV-3) was > 100 µM (inactive) and the GI50 (DU-145) was > 100 µM (inactive). For the same compound, the GI50 (T47D) was > 100 µM (inactive), the GI50 (BT-549) was > 100 µM (inactive) and the GI50 (NCI-H226) was > 100 µM (inactive). For the same compound, the GI50 (TK-10) was > 100 µM (inactive), the GI50 (HCT-116) was > 100 µM (inactive) and the GI50 (SN12C) was > 100 µM (inactive). The GI50 (SK-MEL-2) was > 100 µM (inactive), the GI50 (NCI-H23) was > 100 µM (inactive) and the GI50 (OVCAR-3) was > 100 µM (inactive). For the same compound, the GI50 (OVCAR-8) was > 100 µM (inactive), the GI50 (A549) was > 100 µM (inactive) and the GI50 (UACC-257) was > 100 µM (inactive).
`CC(C)(CO)NC(=O)c1cccc(C(=O)NC(C)(C)CO)c1Br` was tested, and the GI50 (K562) was > 100 µM (inactive), the GI50 (Malme-3M) was > 100 µM (inactive) and the GI50 (U-251) was > 100 µM (inactive). The GI50 (SR) was > 100 µM (inactive), the GI50 (MDA-MB-231) was > 100 µM (inactive) and the GI50 (HCT-15) was > 100 µM. The GI50 (SF-268) was > 100 µM (inactive), the GI50 (MOLT-4) was > 100 µM (inactive) and the GI50 (HCC 2998) was > 100 µM (inactive). The GI50 (SK-MEL-5) was > 100 µM (inactive), the GI50 (HOP-62) was > 100 µM (inactive) and the GI50 (RXF 393) was 7.83 µM (inactive). The GI50 (M14) was > 100 µM (inactive), the GI50 (LOX IMVI) was > 100 µM (inactive) and the GI50 (NCI-H460) was > 100 µM (inactive). For the same compound, the GI50 (COLO 205) was > 100 µM (inactive), the GI50 (UACC-62) was > 100 µM (inactive) and the GI50 (ACHN) was > 100 µM (inactive). For the same compound, the GI50 (HOP-92) was > 100 µM (inactive), the GI50 (UO-31) was > 100 µM (inactive) and the GI50 (SNB-19) was > 100 µM (inactive). The GI50 (786-0) was > 100 µM (inactive), the GI50 (SNB-75) was 32.3 µM (inactive) and the GI50 (HT-29) was > 100 µM (inactive). For the same compound, the GI50 (OVCAR-4) was > 100 µM (inactive), the GI50 (SK-MEL-28) was > 100 µM (inactive) and the GI50 (KM12) was > 100 µM (inactive). The GI50 (RPMI-8226) was > 100 µM (inactive), the GI50 (EKVX) was > 100 µM (inactive) and the GI50 (SW-620) was > 100 µM (inactive). The GI50 (IGROV-1) was > 100 µM (inactive), the GI50 (MCF7) was > 100 µM (inactive) and the GI50 (MDA-MB-435) was > 100 µM (inactive). The GI50 (CAKI-1) was > 100 µM (inactive), the GI50 (OVCAR-5) was > 100 µM (inactive) and the GI50 (NCI/ADR-RES) was > 100 µM (inactive). The GI50 (PC-3) was > 100 µM (inactive), the GI50 (DU-145) was > 100 µM (inactive) and the GI50 (T47D) was > 100 µM (inactive). The GI50 (BT-549) was > 100 µM (inactive), the GI50 (SF-539) was > 100 µM (inactive) and the GI50 (NCI-H226) was > 100 µM (inactive). For the same compound, the GI50 (TK-10) was > 100 µM (inactive), the GI50 (HCT-116) was > 100 µM (inactive) and the GI50 (HL-60) was > 100 µM (inactive). For the same compound, the GI50 (SK-MEL-2) was > 100 µM (inactive), the GI50 (NCI-H23) was > 100 µM (inactive) and the GI50 (OVCAR-8) was > 100 µM (inactive). The GI50 (A549) was > 100 µM (inactive) and the GI50 (UACC-257) was > 100 µM (inactive).
